Results: patent publication US11820787B2, “Benfotiamine derivatives in the treatment of alzheimer's disease” (SHANGHAI RAISING PHARMACEUTICAL CO., LTD., priority 2019, dated 2023)

How the values were obtained:
Aβ42 = Aβ42 content in culture supernatant of HEK293APP/sw overexpression cells (ELISA, adjusted to total protein); format: cell-based; details: for Aβ42 content: secreted by APP/293 (HEK293APP/sw) cells, 400 μM, treated for 24 h, blank control 11.08
Description: (§1) (1) BCA protein concentration assay kit is purchased from Beyotime, Aβ40 and AB42 test kits are purchased from Wako Company. Except the fetal bovine serum (FBS) is purchased from Shanghai Pulong Biotechnology Research and Development Co. Ltd., the other related reagents are purchased from Gibico Company.
(§2) (2) HEK293APP/sw overexpression cell culture: cells are cultured in 48 microwell plate with DMEM culture solution (including 10% FBS, 100 μg/mL G418 (Geneticin) and penicillin and streptomycin), and a 4 mM stock in DMEM is diluted with DMEM to 400 μM and added to cell culture medium by 500 μL/well at 70% cell density and treated for 24 h.
(§3) (3) After the supernatant of culture solution is added to the BCA reagent at room temperature for 30 minutes, the absorption value of each well is measured at the OD 570 nm by the microplate reader and the total protein concentration is calculated according to the protein standard curve. Meanwhile, the concentration of Aβ40 and Aβ42 in the supernatant of culture solution is measured. Briefly, the supernatant is added to the 96 microwell plate coated by primary antibodies and incubated at 4° C. for overnight. Then the solution in the 96 microwell plate is removed and washed, and HRP (horseradish oxide enzyme) marked antibody is added to the solution and incubated at 4° C. for 2 hours. The antibody is removed and the plate is washed. After TMB substrate is added to each well at room temperature for 30 minutes, and the stop buffer is added to each well. The absorption value of each well is measured at the OD 450 nm by the microplate reader and the concentrations of Aβ40 and Aβ42 are calculated according to the standard curves of Aβ40 and Aβ42 respectively, and the final concentration is obtained by adjusting the concentrations of Aβ40 and Aβ42 according to the total protein concentration.

Aβ40 = Aβ40 content in culture supernatant of HEK293APP/sw overexpression cells (ELISA, adjusted to total protein); format: cell-based; details: for Aβ40 content: secreted by APP/293 (HEK293APP/sw) cells, 400 μM, treated for 24 h, blank control 127.81
Description: as §1, §2, §3

Molecule	Aβ42 content (Aβ42) [pmol/L]	Aβ40 content (Aβ40) [pmol/L]	effect on the generation of Aβ42 peptides compared with blank control (Aβ42; APP/293 cells, in words)	effect on the generation of Aβ40 peptides compared with blank control (Aβ40; APP/293 cells, in words)
C=Cc1ccc(C(=O)S/C(CCOP(=O)(O)O)=C(/C)N(C=O)Cc2cnc(C)nc2N)cc1 [Example 21, (Z)-S-(2-(N-((4-amino-2-methylpyrimidin-5-yl)methyl)formamido)-5-(phosphonooxy)pent-2-en-3-yl)4-vinylbenzothioate]	11.24	127.41		
C/C(=C(\CCOP(=O)(O)O)SC(=O)c1cccc(C)c1)N(C=O)Cc1cnc(C)nc1N [Example 14, (Z)-S-(2-(N-((4-amino-2-methylpyrimidin-5-yl)methyl)formamido)-5-(phosphonooxy)pent-2-en-3-yl)3-methylbenzothioate]	6.41	97.97		
C/C(=C(\CCOP(=O)(O)O)SC(=O)c1ccccc1F)N(C=O)Cc1cnc(C)nc1N [Example 9, (Z)-S-(2-(N-((4-amino-2-methylpyrimidin-5-yl)methyl)formamido)-5-(phosphonooxy)pent-2-en-3-yl)2-fluorobenzothioate]		15.00		
COc1cccc(C(=O)S/C(CCOP(=O)(O)O)=C(/C)N(C=O)Cc2cnc(C)nc2N)c1 [Example 1, (Z)-S-(2-(N-((4-amino-2-methylpyrimidin-5-yl)methyl)formamido)-5-(phosphonooxy)pent-2-en-3-yl)3-methoxybenzothioate]	12.14	135.09		
(Z)-S-(2-(N-((4-amino-2-methylpyrimidin-5-yl)methyl)formamido)-5-(phosphonooxy)pent-2-en-3-yl)2-iodobenzothioate [Example 19]	5.50	62.74		
C/C(=C(\CCOP(=O)(O)O)SC(=O)c1c(C)cccc1C)N(C=O)Cc1cnc(C)nc1N [Example 23, (Z)-S-(2-(N-((4-amino-2-methylpyrimidin-5-yl)methyl)formamido)-5-(phosphonooxy)pent-2-en-3-yl)2,6-dimethylbenzothioate]	12.64	143.18		
C/C(=C(\CCOP(=O)(O)O)SC(=O)c1ccc([N+](=O)[O-])cc1)N(C=O)Cc1cnc(C)nc1N [Example 11, (Z)-S-(2-(N-((4-amino-2-methylpyrimidin-5-yl)methyl)formamido)-5-(phosphonooxy)pent-2-en-3-yl)4-nitrobenzothioate]	5.21	60.98		
C/C(=C(\CCOP(=O)(O)O)SC(=O)c1ccc(Br)cc1)N(C=O)Cc1cnc(C)nc1N [Example 17, (Z)-S-(2-(N-((4-amino-2-methylpyrimidin-5-yl)methyl)formamido)-5-(phosphonooxy)pent-2-en-3-yl)4-bromobenzothioate]	8.89	112.53		
C/C(=C(\CCOP(=O)(O)O)SC(=O)c1cccc(Br)c1)N(C=O)Cc1cnc(C)nc1N [Example 5, (Z)-S-(2-(N-((4-amino-2-methylpyrimidin-5-yl)methyl)formamido)-5-(phosphonooxy)pent-2-en-3-yl)3-bromobenzothioate]	6.77	25.65		
C/C(=C(\CCOP(=O)(O)O)SC(=O)c1ccc(Cl)cc1)N(C=O)Cc1cnc(C)nc1N [Example 15, (Z)-S-(2-(N-((4-amino-2-methylpyrimidin-5-yl)methyl)formamido)-5-(phosphonooxy)pent-2-en-3-yl)4-chlorobenzothioate]	7.16	60.27		
C/C(=C(\CCOP(=O)(O)O)SC(=O)c1cccc(Cl)c1)N(C=O)Cc1cnc(C)nc1N [Example 13, (Z)-S-(2-(N-((4-amino-2-methylpyrimidin-5-yl)methyl)formamido)-5-(phosphonooxy)pent-2-en-3-yl)3-chlorobenzothioate]	6.37	69.35		
C/C(=C(\CCOP(=O)(O)O)SC(=O)c1ccc(O)cc1)N(C=O)Cc1cnc(C)nc1N [Example 3, (Z)-S-(2-(N-((4-amino-2-methylpyrimidin-5-yl)methyl)formamido)-5-(phosphonooxy)pent-2-en-3-yl)4-hydroxybenzothioate]	10.79	121.48		
CCOc1ccc(C(=O)S/C(CCOP(=O)(O)O)=C(/C)N(C=O)Cc2cnc(C)nc2N)cc1 [Example 2, (Z)-S-(2-(N-((4-amino-2-methylpyrimidin-5-yl)methyl)formamido)-5-(phosphonooxy)pent-2-en-3-yl)4-ethoxybenzothioate]	7.19	93.07		
CCOc1ccccc1C(=O)S/C(CCOP(=O)(O)O)=C(/C)N(C=O)Cc1cnc(C)nc1N [Example 16]	5.93	42.76		
C=Cc1cccc(C(=O)S/C(CCOP(=O)(O)O)=C(/C)N(C=O)Cc2cnc(C)nc2N)c1 [Example 20, (Z)-S-(2-(N-((4-amino-2-methylpyrimidin-5-yl)methyl)formamido)-5-(phosphonooxy)pent-2-en-3-yl)3-vinylbenzothioate]	10.33	117.16		
C/C(=C(\CCOP(=O)(O)O)SC(=O)c1cccc(F)c1)N(C=O)Cc1cnc(C)nc1N [Example 8, (Z)-S-(2-(N-((4-amino-2-methylpyrimidin-5-yl)methyl)formamido)-5-(phosphonooxy)pent-2-en-3-yl)3-fluorobenzothioate]	8.35	87.33		
C/C(=C(\CCOP(=O)(O)O)SC(=O)c1c(F)cccc1F)N(C=O)Cc1cnc(C)nc1N [Example 4, (Z)-S-(2-(N-((4-amino-2-methylpyrimidin-5-yl)methyl)formamido)-5-(phosphonooxy)pent-2-en-3-yl)2,6-difluorobenzothioate]	8.86	133.25		
C/C(=C(\CCOP(=O)(O)O)SC(=O)c1ccccc1[N+](=O)[O-])N(C=O)Cc1cnc(C)nc1N [Example 22, (Z)-S-(2-(N-((4-amino-2-methylpyrimidin-5-yl)methyl)formamido)-5-(phosphonooxy)pent-2-en-3-yl)2-nitrobenzothioate]	11.31	127.81		
C/C(=C(\CCOP(=O)(O)O)SC(=O)c1ccccc1C)N(C=O)Cc1cnc(C)nc1N [Example 10, (Z)-S-(2-(N-((4-amino-2-methylpyrimidin-5-yl)methyl)formamido)-5-(phosphonooxy)pent-2-en-3-yl)2-methylbenzothioate]	9.78	112.32		
(Z)-S-(2-(N-((4-amino-2-methylpyrimidin-5-yl)methyl)formamido)-5-(phosphonooxy)pent-2-en-3-yl)2-bromobenzothioate [Example 18]	2.60	21.19		
COc1ccc(C(=O)S/C(CCOP(=O)(O)O)=C(/C)N(C=O)Cc2cnc(C)nc2N)cc1 [Example 12, (Z)-S-(2-(N-((4-amino-2-methylpyrimidin-5-yl)methyl)formamido)-5-(phosphonooxy)pent-2-en-3-yl)4-methoxybenzothioate]	3.92	41.60		
C/C(=C(\CCOP(=O)(O)O)SC(=O)c1ccc(F)cc1)N(C=O)Cc1cnc(C)nc1N [Example 7, (Z)-S-(2-(N-((4-amino-2-methylpyrimidin-5-yl)methyl)formamido)-5-(phosphonooxy)pent-2-en-3-yl)4-fluorobenzothioate]	13.08	152.06		
C/C(=C(\CCOP(=O)(O)O)SC(=O)c1ccccc1)N(C=O)Cc1cnc(C)nc1N [Comparative Example 2, S-[2-[[(4-amino-2-methyl-5-pyrimidinyl)methyl]formylamino]-1-[2-(phosphonooxy)ethyl]-1-propenyl]ester, reference compound]	5.04	53.77	good effect on reducing the generation	good effect on reducing the generation
C/C(=C(\CCOP(=O)(O)O)SC(=O)c1cccc([N+](=O)[O-])c1)N(C=O)Cc1cnc(C)nc1N [Example 6, (Z)-S-(2-(N-((4-amino-2-methylpyrimidin-5-yl)methyl)formamido)-5-(phosphonooxy)pent-2-en-3-yl)3-nitrobenzothioate]	3.31	81.05		
